Assay results published in ChEMBL document CHEMBL4602617, “Discovery and optimization of heteroaryl piperazines as potent and selective PI3Kδ inhibitors” (Bioorg Med Chem Lett, 2020).
pIC50: −log10 of the molar value.

Key:
[1] = target: Mitogen-activated protein kinase 14 (Homo sapiens, UniProt Q16539); experiment: Inhibition of recombinant full length human p38alpha expressed in Escherichia coli at 10 uM using MBP as substrate after 30 mins by radiometric scintillation analysis relative to control
[2] = target: Mitogen-activated protein kinase 10 (Homo sapiens, UniProt P53779); experiment: Inhibition of recombinant full length N-terminal GST-tagged human JNK3 expressed in baculovirus expression system using Ser/Thr-04 peptide as substrate after 1 hr in presence of ATP by Z'LYTE assay
Mitogen-activated protein kinase 10, sequence (P53779 whole entry): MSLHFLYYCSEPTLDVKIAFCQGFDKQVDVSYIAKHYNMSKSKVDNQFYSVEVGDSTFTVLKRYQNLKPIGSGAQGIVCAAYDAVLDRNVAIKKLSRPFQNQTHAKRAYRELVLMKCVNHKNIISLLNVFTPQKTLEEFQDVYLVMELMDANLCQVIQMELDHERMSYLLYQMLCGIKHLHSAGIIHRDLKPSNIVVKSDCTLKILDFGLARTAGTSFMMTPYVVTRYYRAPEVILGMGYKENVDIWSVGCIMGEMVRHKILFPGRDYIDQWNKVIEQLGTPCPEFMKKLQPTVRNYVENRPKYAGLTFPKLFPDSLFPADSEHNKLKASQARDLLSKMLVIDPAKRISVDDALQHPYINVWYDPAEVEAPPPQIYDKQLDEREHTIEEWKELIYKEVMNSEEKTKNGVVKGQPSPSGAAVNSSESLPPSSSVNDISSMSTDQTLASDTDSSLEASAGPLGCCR

[3] = target: Melanocyte-stimulating hormone receptor (Homo sapiens) (UniProt Q01726); experiment: Displacement of [125I]NDP-alpha-MSH from full length human recombinant MC1 receptor expressed in CHO-K1 cells at 10 uM measured after 120 mins by radiometric scintillation analysis relative to control; format: cell-based
[4] = target: B1 bradykinin receptor (Homo sapiens) (UniProt P46663); experiment: Inhibition of human B1 bradykinin receptor at 10 uM relative to control
[5] = target: Proto-oncogene tyrosine-protein kinase receptor Ret (Homo sapiens, UniProt P07949, Y791F); experiment: Inhibition of recombinant human GST-tagged RET Y791F mutant cytoplasmic domain expressed in baculovirus expression system using tyr02 peptide as substrate incubated for 60 mins in presence of ATP by Z'-LYTE assay
[6] = target: Casein kinase II subunit alpha' (Homo sapiens, UniProt P19784); experiment: Inhibition of recombinant human full-length GST-tagged CSNK2A2 expressed in baculovirus expression system using FRET-labeled Ser/Thr 11 peptide as substrate measured after 1 hr in presence of ATP by Z'-lyte assay
Rattus norvegicus = species on record: Rattus norvegicus; experiment: Displacement of [3H]hemicholinium-3 from choline transporter in Wistar rat striatal membranes at 10 uM after 20 mins by radiometric scintillation analysis relative to control; format: cell membranes; details: Striatum, Membrane
[7] = target: Mitogen-activated protein kinase 9 (Homo sapiens, UniProt P45984); experiment: Inhibition of recombinant full length human His-tagged JNK2 expressed in baculovirus expression system using serine/threonine-4 peptide as substrate incubated for 60 mins in presence of ATP by Z'-LYTE assay
[8] = target: Serine/threonine-protein kinase PAK 2 (Homo sapiens, UniProt Q13177); experiment: Inhibition of recombinant full length human GST-tagged PAK2 expressed in baculovirus expression system using serine/threonine-20 peptide as substrate incubated for 60 mins in presence of ATP by Z'-LYTE assay
[9] = target: Protein kinase C theta type (Homo sapiens, UniProt Q04759); experiment: Inhibition of recombinant full length human His-tagged PKCtheta expressed in baculovirus expression system using serine/threonine-7 peptide as substrate incubated for 60 mins in presence of ATP by Z'-LYTE assay
[10] = target: Neuropeptide Y receptor type 2 (Homo sapiens) (UniProt P49146); experiment: Displacement of [[125I]peptide YY from full length human KAN-TS cell membrane derived Y2 neuropeptide receptor at 10 uM measured after 120 mins by radiometric scintillation analysis relative to control
[11] = target: Prostaglandin F2-alpha receptor (Homo sapiens) (UniProt P43088); experiment: Displacement of [3H]PGF2alpha from full length human recombinant prostanoid FP receptor expressed in HEK293 cells at 10 uM measured after 60 mins by radiometric scintillation analysis relative to control; format: cell-based
[12] = target: Serine/threonine-protein kinase mTOR (Homo sapiens, UniProt P42345); experiment: Inhibition of recombinant human GST-tagged mTOR catalytic domain (1360 to 2549 residues) expressed in baculovirus expression system using serine/threonine-11 peptide as substrate incubated for 60 mins in presence of ATP by Z'-LYTE assay
[13] = target: PAS domain-containing serine/threonine-protein kinase (Homo sapiens, UniProt Q96RG2); experiment: Inhibition of recombinant human GST-tagged PASK catalytic domain expressed in baculovirus expression system using serine/threonine-7 peptide as substrate incubated for 60 mins in presence of ATP by Z'-LYTE assay
[14] = Half life in rat at 0.5 mg/kg, iv 1 mg/kg, po; format: ADME, organism-based; details: in vivo
[15] = target: Tyrosine-protein kinase Fgr (Homo sapiens, UniProt P09769); experiment: Inhibition of recombinant full length human C-terminal His-tagged FGR expressed in baculovirus expression system using tyrosine-2 peptide as substrate incubated for 60 mins in presence of ATP by Z'-LYTE assay
Tyrosine-protein kinase Fgr, sequence (P09769 whole entry): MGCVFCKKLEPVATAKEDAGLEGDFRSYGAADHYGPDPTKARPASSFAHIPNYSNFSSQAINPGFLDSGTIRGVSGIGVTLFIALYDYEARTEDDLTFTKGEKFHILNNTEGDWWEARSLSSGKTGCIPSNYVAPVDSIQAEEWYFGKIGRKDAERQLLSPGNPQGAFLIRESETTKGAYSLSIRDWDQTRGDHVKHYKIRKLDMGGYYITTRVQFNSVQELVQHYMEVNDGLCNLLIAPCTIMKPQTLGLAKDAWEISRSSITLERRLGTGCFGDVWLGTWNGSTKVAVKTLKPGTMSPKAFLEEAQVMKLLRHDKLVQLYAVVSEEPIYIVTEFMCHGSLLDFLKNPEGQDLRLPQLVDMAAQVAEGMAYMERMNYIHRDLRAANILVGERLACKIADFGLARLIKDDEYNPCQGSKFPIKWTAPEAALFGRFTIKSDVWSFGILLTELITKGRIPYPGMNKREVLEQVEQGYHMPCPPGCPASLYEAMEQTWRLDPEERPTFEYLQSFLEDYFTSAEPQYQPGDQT

CDK9/cyclin T1 = CDK9/cyclin T1 (Homo sapiens, UniProt P50750); experiment: Inhibition of recombinant full length human His-tagged CDK9/CyclinT1 expressed in baculovirus expression system using CDK7/9tide peptide as substrate incubated for 60 mins in presence of ATP by Adapta assay
CDK9/cyclin T1, sequence (O60563 whole entry): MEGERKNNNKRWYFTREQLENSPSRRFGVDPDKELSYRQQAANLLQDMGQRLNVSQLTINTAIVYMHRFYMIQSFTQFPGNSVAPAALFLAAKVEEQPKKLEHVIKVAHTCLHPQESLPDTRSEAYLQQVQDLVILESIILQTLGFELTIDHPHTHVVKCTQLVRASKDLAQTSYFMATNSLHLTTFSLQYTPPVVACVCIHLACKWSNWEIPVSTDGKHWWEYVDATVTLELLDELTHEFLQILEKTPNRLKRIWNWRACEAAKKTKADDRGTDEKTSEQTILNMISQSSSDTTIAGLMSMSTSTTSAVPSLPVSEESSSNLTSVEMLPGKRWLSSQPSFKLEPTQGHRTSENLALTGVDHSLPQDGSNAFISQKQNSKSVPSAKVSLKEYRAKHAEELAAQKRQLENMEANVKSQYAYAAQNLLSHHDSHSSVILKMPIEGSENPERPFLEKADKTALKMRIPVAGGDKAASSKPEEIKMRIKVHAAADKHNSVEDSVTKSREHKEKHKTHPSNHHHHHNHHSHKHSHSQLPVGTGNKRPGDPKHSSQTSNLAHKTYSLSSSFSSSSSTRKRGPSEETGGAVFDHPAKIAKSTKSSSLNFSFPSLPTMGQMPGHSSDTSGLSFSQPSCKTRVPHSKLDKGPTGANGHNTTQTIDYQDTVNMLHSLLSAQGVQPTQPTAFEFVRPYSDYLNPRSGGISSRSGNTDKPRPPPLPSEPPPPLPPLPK
CDK9/cyclin T1, sequence (P50750 whole entry): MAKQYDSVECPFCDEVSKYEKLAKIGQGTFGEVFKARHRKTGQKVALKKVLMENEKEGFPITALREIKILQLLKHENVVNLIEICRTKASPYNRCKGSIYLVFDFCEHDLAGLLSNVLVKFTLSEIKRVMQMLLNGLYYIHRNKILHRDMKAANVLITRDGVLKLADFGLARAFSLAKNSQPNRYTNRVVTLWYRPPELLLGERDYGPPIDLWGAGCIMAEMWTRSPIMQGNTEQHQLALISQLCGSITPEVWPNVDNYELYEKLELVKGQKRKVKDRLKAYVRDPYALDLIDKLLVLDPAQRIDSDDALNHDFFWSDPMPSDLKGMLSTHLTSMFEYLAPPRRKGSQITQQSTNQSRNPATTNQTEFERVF

[16] = target: Beta-2 adrenergic receptor (Homo sapiens) (UniProt P07550); experiment: Displacement of [3H]CGP-12177 from full-length recombinant human beta2 adrenergic receptor expressed in CHO cells co-expressing NBR1 at 10 uM measured after 60 mins by scintillation counting method relative to control; format: cell-based
Beta-2 adrenergic receptor (Homo sapiens), sequence (P07550 whole entry, looked up): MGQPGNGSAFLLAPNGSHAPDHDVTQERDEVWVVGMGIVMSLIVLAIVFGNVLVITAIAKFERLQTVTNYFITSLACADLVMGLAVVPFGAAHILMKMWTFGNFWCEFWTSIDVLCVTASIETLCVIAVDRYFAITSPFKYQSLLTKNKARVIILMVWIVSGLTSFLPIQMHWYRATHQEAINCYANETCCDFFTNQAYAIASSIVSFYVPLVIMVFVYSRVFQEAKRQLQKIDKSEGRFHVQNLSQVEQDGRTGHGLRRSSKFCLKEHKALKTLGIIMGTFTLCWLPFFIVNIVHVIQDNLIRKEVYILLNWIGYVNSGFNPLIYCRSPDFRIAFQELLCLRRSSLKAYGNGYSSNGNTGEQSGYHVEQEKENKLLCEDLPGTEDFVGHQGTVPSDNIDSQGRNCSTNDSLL

[17] = target: Eukaryotic elongation factor 2 kinase (Homo sapiens, UniProt O00418); experiment: Inhibition of recombinant human full length GST-tagged EEF2K expressed in Escherichia coli expression system using serine/threonine-24 peptide as substrate incubated for 60 mins in presence of ATP by Z'-LYTE assay
Eukaryotic elongation factor 2 kinase, sequence (O00418 whole entry): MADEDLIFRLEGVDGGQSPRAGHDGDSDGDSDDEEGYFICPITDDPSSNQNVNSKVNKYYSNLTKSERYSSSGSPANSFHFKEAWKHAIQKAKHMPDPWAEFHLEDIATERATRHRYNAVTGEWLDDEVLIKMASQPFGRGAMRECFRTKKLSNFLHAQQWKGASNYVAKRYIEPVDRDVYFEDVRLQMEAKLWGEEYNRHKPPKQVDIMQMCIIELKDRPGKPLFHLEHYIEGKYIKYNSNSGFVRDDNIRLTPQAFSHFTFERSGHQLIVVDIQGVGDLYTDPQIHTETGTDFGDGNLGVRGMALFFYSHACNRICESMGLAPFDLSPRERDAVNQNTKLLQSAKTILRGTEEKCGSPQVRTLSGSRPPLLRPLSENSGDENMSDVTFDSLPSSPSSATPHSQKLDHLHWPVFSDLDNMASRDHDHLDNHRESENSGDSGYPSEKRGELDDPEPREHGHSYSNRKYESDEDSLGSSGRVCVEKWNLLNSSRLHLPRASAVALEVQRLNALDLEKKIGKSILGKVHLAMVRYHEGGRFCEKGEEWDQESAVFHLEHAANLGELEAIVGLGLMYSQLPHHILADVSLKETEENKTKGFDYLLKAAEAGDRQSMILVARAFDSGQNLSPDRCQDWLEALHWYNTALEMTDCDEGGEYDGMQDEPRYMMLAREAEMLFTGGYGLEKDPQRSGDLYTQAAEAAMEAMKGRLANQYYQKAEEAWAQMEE

[18] = target: Histamine H3 receptor (Homo sapiens) (UniProt Q9Y5N1); experiment: Displacement of [3H]N-alpha-Methylhistamine from full length human recombinant histamine H3 receptor expressed in CHO-K1 cells at 10 uM measured after 120 mins by radiometric scintillation analysis relative to control; format: cell-based
[19] = target: Ribosomal protein S6 kinase alpha-6 (Homo sapiens, UniProt Q9UK32); experiment: Inhibition of recombinant full length human N-terminal GST-tagged RPS6KA6 expressed in baculovirus expression system using ser/Thr20 peptide as substrate incubated for 60 mins in presence of ATP by Z'-LYTE assay
Ribosomal protein S6 kinase alpha-6, sequence (Q9UK32 whole entry): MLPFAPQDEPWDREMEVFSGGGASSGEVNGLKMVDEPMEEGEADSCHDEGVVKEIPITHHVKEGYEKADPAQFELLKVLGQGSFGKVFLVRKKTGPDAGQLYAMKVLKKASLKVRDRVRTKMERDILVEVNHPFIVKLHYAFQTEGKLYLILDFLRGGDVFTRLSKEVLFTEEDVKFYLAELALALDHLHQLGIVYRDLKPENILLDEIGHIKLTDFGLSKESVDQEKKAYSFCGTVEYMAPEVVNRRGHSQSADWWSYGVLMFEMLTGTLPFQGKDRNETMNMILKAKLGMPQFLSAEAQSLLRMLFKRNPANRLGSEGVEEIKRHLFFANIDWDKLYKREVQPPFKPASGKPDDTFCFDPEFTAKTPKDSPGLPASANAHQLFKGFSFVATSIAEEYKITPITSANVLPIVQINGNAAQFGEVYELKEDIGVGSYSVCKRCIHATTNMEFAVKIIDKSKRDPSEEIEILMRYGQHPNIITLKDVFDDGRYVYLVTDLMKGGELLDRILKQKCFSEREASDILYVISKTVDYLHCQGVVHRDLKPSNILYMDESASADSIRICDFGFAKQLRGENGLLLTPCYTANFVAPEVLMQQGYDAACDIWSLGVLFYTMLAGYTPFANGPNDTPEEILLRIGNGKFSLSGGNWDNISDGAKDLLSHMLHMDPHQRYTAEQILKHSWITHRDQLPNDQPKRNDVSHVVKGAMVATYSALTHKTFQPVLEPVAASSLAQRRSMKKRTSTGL

[20] = target: DNA-dependent protein kinase catalytic subunit (Homo sapiens, UniProt P78527); experiment: Inhibition of recombinant human DNA-PK expressed in baculovirus expression system using serine/threonine-26 peptide as substrate incubated for 60 mins in presence of ATP by Z'-LYTE assay
[21] = target: Tyrosine-protein kinase Blk (Homo sapiens, UniProt P51451); experiment: Inhibition of recombinant full length human His-tagged BLK cytoplasmic domain expressed in baculovirus expression system using tyrosine-1 peptide as substrate incubated for 60 mins in presence of ATP by Z'-LYTE assay
[22] = target: Acetylcholine receptor subunit alpha (Homo sapiens) (UniProt P02708); experiment: Displacement of [125I]-alpha-Bungarotoxin from full length nAChR alpha1 receptor in human RD cell membranes at 10 uM measured after 120 mins by radiometric scintillation analysis relative to control
Acetylcholine receptor subunit alpha (Homo sapiens), sequence (P02708 whole entry): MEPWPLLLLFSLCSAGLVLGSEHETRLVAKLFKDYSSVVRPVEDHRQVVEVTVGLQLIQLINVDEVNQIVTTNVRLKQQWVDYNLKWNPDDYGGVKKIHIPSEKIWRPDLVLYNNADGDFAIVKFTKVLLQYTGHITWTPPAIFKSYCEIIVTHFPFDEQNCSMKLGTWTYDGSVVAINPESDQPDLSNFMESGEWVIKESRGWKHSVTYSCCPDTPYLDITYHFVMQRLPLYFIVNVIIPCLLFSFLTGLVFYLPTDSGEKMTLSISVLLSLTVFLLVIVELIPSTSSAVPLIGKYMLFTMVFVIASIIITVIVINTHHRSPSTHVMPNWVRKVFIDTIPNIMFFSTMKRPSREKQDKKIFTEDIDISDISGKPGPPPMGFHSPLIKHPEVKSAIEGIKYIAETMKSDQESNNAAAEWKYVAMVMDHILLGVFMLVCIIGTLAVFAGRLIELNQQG

[23] = target: Cannabinoid receptor 2 (Homo sapiens) (UniProt P34972); experiment: Displacement of [3H]WIN55212-2 from recombinant full length human recombinant CB2 receptor expressed in CHOK1 cells at 10 uM measured after 90 mins by radiometric scintillation analysis relative to control; format: cell-based; details: CHO-K1
[24] = target: Tyrosine-protein kinase CSK (Homo sapiens, UniProt P41240); experiment: Inhibition of recombinant full length human His-tagged CSK expressed in Escherichia coli expression system using tyrosine-2 peptide as substrate incubated for 60 mins in presence of ATP by Z'-LYTE assay
Tyrosine-protein kinase CSK, sequence (P41240 whole entry): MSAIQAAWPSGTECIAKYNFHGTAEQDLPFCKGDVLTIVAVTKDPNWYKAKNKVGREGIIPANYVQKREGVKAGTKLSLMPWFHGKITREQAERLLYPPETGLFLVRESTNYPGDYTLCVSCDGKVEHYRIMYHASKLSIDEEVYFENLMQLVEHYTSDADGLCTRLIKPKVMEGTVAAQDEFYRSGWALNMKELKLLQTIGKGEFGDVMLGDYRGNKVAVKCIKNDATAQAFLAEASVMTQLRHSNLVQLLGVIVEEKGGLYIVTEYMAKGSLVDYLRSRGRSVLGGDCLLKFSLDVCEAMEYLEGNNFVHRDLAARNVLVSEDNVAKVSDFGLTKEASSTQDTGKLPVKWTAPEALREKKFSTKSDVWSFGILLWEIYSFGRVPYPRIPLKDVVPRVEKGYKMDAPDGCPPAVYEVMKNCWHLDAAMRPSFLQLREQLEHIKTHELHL

C[C@@H]1C[C@H]1C(=O)N1CCN(c2cnc(C#N)c(-c3cnn(C)c3)n2)C[C@H]1C
inhibition [1]: 19% | pIC50 [2]: 5.27 | inhibition [3]: 3% | inhibition [4]: -1% | pIC50 [5]: < 4.00 | pIC50 [6]: < 4.00 | inhibition (Rattus norvegicus): -8% | pIC50 [7]: < 4.00 | pIC50 [8]: < 4.00 | pIC50 [9]: < 4.00 | inhibition [10]: -2% | inhibition [11]: 9% | pIC50 [12]: < 4.00 | pIC50 [13]: < 4.00 | half-life [14]: 36 min | pIC50 [15]: 4.60 | pIC50 (CDK9/cyclin T1): < 4.00 | inhibition [16]: 7% | pIC50 [17]: < 4.00 | inhibition [18]: -1% | pIC50 [19]: < 4.00 | pIC50 [20]: < 4.00 | pIC50 [21]: < 4.00 | inhibition [22]: 5% | inhibition [23]: 2% | pIC50 [24]: < 4.00
